Patent publication US20090143279A1 (priority 2007, published 2009)
Where two headings read alike, the source gives them in different places.

Tests used:
OXPHOS gene expression = assay type: cell-based, mouse; details: for GE-HTS (composite Z-score): normalized score vs mock-treated (DMSO) wells
nuOXPHOS transcripts = assay type: cell-based, mouse; details: for nucOX (composite Z-score): normalized score vs mock-treated (DMSO) wells
reactive oxygen species = assay type: cell-based, mouse; details: for ROS (composite Z-score): normalized score vs mock-treated (DMSO) wells
mtOXPHOS transcripts = assay type: cell-based, mouse; details: for mitoOX (composite Z-score): normalized score vs mock-treated (DMSO) wells
C2C12 myotubes = details: for Viability (composite Z-score): normalized score vs mock-treated (DMSO) wells
[1] = tested on: cellular dehydrogenase activity; details: for MTT (composite Z-score): normalized score vs mock-treated (DMSO) wells
[2] = tested on: mitochondrial membrane potential; assay type: cell-based, mouse; details: for ΔΨm (composite Z-score): normalized score vs mock-treated (DMSO) wells
cytochrome c = assay type: cell-based, mouse; details: for cyt c (composite Z-score): normalized score vs mock-treated (DMSO) wells
[3] = composite Z-score vs DMSO, Conc 20 μM
[4] = composite Z-score vs mock-treated (DMSO) wells, Conc 20 μM
[5] = composite Z-score vs DMSO wells, Conc 20 μM
[6] = 20 μM, composite Z-score vs DMSO
[7] = 12.18 μM, composite Z-score vs DMSO
[8] = composite Z-score vs mock-treated (DMSO) wells, concentration of each compound in μM
[9] = normalized composite Z-score vs mock-treated (DMSO) wells, Conc 20 μM
[10] = composite Z-score vs DMSO, Conc 8.92 μM

CC(=O)OCC(=O)[C@@]1(O)CCC2C3CC[C@@H]4C[C@H](OC(C)=O)CC[C@]4(C)C3C(=O)C[C@@]21C (stereo partly drawn) [tetrahydrocortisone-3,21-diacetate]
GE-HTS (OXPHOS gene expression; [3]): −0.320 | nucOX (nuOXPHOS transcripts; [3]): −0.558 | ROS (reactive oxygen species; [3]): 0.456 | mitoOX (mtOXPHOS transcripts; [3]): 0.269 | Viability (C2C12 myotubes; [3]): −0.030 | MTT [1, 3]: −0.664 | ΔΨm [2, 3]: 0.074 | cyt c (cytochrome c; [3]): −0.397

CC(C)=CCCC1(C)C=Cc2c(O)c3c(c(CC=C(C)C)c2O1)OC12C(CC4CC1C(C)(C)OC2(C/C=C(/C)C(=O)O)C4O)C3=O (stereo not drawn) [tetrahydrogambogic acid]
GE-HTS (OXPHOS gene expression; [4]): −0.478 | nucOX (nuOXPHOS transcripts; [4]): −0.409 | ROS (reactive oxygen species; [4]): 0.460 | mitoOX (mtOXPHOS transcripts; [4]): −0.490 | Viability (C2C12 myotubes; [4]): 1.434 | MTT [1, 4]: −1.090 | ΔΨm [2, 4]: −1.438 | cyt c (cytochrome c; [4]): −0.932

O=C1C(O)=C(O)C(=O)C(O)=C1O [tetroquinone]
GE-HTS (OXPHOS gene expression; [5]): 0.067 | nucOX (nuOXPHOS transcripts; [5]): 0.028 | ROS (reactive oxygen species; [5]): 0.638 | mitoOX (mtOXPHOS transcripts; [5]): 0.112 | Viability (C2C12 myotubes; [5]): 0.088 | MTT [1, 5]: −0.574 | ΔΨm [2, 5]: −0.424 | cyt c (cytochrome c; [5]): 0.386

O=c1c(O)cccc2c([C@H]3Oc4cc(O)cc(O)c4C[C@H]3O)cc(O)c(O)c12 [theaflavanin]
GE-HTS (composite Z-score) (OXPHOS gene expression; Conc 20 μM): −0.695 | nucOX (composite Z-score) (nuOXPHOS transcripts; Conc 20 μM): −0.764 | ROS (composite Z-score) (reactive oxygen species; Conc 20 μM): −0.040 | mitoOX (composite Z-score) (mtOXPHOS transcripts; Conc 20 μM): −0.333 | Viability (composite Z-score) (C2C12 myotubes; Conc 20 μM): −1.349 | MTT (composite Z-score) ([1]; Conc 20 μM): −0.665 | ΔΨm (composite Z-score) ([2]; Conc 20 μM): −2.074 | cyt c (composite Z-score) (cytochrome c; Conc 20 μM): −0.166

CCNC(=O)CC[C@H](N)C(=O)O [theanine]
GE-HTS (OXPHOS gene expression; [3]): −1.153 | nucOX (nuOXPHOS transcripts; [3]): −1.209 | ROS (reactive oxygen species; [3]): 0.615 | mitoOX (mtOXPHOS transcripts; [3]): −0.778 | Viability (C2C12 myotubes; [3]): −0.613 | MTT [1, 3]: −0.851 | ΔΨm [2, 3]: −0.557 | cyt c (cytochrome c; [3]): 0.244

Cn1cnc2c1c(=O)[nH]c(=O)n2C [theobromine]
GE-HTS (OXPHOS gene expression; [5]): −0.561 | nucOX (nuOXPHOS transcripts; [5]): −0.449 | ROS (reactive oxygen species; [5]): 0.179 | mitoOX (mtOXPHOS transcripts; [5]): −0.609 | Viability (C2C12 myotubes; [5]): −0.264 | MTT [1, 5]: −0.982 | ΔΨm [2, 5]: −0.847 | cyt c (cytochrome c): 0.007 | cyt c (cytochrome c; [5]): −0.026

CN(C)C(=S)SSC(=S)N(C)C [thiram]
GE-HTS (OXPHOS gene expression; [6]): −2.420 | nucOX (nuOXPHOS transcripts; [6]): −2.770 | ROS (reactive oxygen species; [6]): −3.915 | mitoOX (mtOXPHOS transcripts; [6]): −1.220 | Viability (C2C12 myotubes; [6]): −5.812 | MTT [1, 6]: −6.222 | ΔΨm [2, 6]: −4.011 | cyt c (cytochrome c; [6]): −4.853

CCN(CC)CCNC(=O)c1cc(S(C)(=O)=O)ccc1OC [tiapride]
GE-HTS (OXPHOS gene expression; [7]): 0.341 | GE-HTS (OXPHOS gene expression; [6]): −0.283 | nucOX (nuOXPHOS transcripts; [7]): 0.416 | nucOX (nuOXPHOS transcripts; [6]): −0.220 | ROS (reactive oxygen species; [7]): 0.653 | ROS (reactive oxygen species; [6]): −0.466 | mitoOX (mtOXPHOS transcripts; [7]): 0.086 | mitoOX (mtOXPHOS transcripts; [6]): −0.355 | Viability (C2C12 myotubes; [7]): −1.454 | Viability (C2C12 myotubes; [6]): 1.174 | MTT [1, 7]: −1.563 | MTT [1, 6]: −0.646 | ΔΨm [2, 7]: −0.800 | ΔΨm [2, 6]: 0.171 | cyt c (cytochrome c; [7]): 0.917 | cyt c (cytochrome c; [6]): −0.107

C[C@H]1CC[C@]2(NC1)O[C@H]1C[C@H]3[C@@H]4CC[C@H]5C[C@@H](O)CC[C@]5(C)[C@H]4CC[C@]3(C)[C@H]1[C@@H]2C [tomatidine]
GE-HTS (OXPHOS gene expression; [3]): −1.375 | nucOX (nuOXPHOS transcripts; [3]): −1.473 | ROS (reactive oxygen species; [3]): 1.323 | mitoOX (mtOXPHOS transcripts; [3]): −0.857 | Viability (C2C12 myotubes; [3]): 0.490 | MTT [1, 3]: −1.376 | ΔΨm [2, 3]: −0.425 | cyt c (cytochrome c; [3]): 0.913 | cyt c (cytochrome c; [8]): 1.135

C[C@H]1CC[C@]2(NC1)O[C@H]1C[C@H]3[C@@H]4CC[C@H]5C[C@@H](O[C@@H]6O[C@H](CO)[C@H](O[C@@H]7O[C@H](CO)[C@@H](O)[C@H](O[C@@H]8OC[C@@H](O)[C@H](O)[C@H]8O)[C@H]7O[C@@H]7O[C@H](CO)[C@@H](O)[C@H](O)[C@H]7O)[C@H](O)[C@H]6O)CC[C@]5(C)[C@H]4CC[C@]3(C)[C@H]1[C@@H]2C [tomatine]
GE-HTS (OXPHOS gene expression; [3]): −2.151 | nucOX (nuOXPHOS transcripts; [3]): −2.158 | ROS (reactive oxygen species; [3]): −2.084 | mitoOX (mtOXPHOS transcripts; [3]): −1.725 | Viability (C2C12 myotubes; [3]): −4.793 | MTT [1, 3]: −4.122 | ΔΨm [2, 3]: −2.423 | cyt c (cytochrome c; [3]): −3.979

CC(C)c1c(O)ccc2c1CCC1[C@@](C)(C=O)CCC[C@]21C (stereo partly drawn) [totaralolal]
GE-HTS (OXPHOS gene expression; [4]): −0.700 | nucOX (nuOXPHOS transcripts; [4]): −0.401 | ROS (reactive oxygen species; [4]): 1.617 | mitoOX (mtOXPHOS transcripts; [4]): −1.230 | Viability (C2C12 myotubes; [4]): 0.591 | MTT [1, 4]: 1.526 | ΔΨm [2, 4]: 0.460 | cyt c (cytochrome c; [4]): −0.226

COC(=O)[C@@]1(C)CCC[C@]2(C)c3ccc(O)c(C(C)C)c3CCC12 (stereo partly drawn) [totarol-19-carboxylic acid, methyl ester]
GE-HTS (OXPHOS gene expression; [4]): −0.323 | nucOX (nuOXPHOS transcripts; [4]): −0.005 | ROS (reactive oxygen species; [4]): 1.290 | mitoOX (mtOXPHOS transcripts; [4]): −0.853 | Viability (C2C12 myotubes; [4]): −0.739 | MTT [1, 4]: 1.019 | ΔΨm [2, 4]: −0.409 | cyt c (cytochrome c; [4]): 0.085

CC(C)c1c(O)ccc2c1CCC1C(C)(C(=O)O)CCCC21C (stereo not drawn) [totarol-19-carboxylic acid]
GE-HTS (OXPHOS gene expression; [8]): −0.399 | nucOX (nuOXPHOS transcripts; [8]): −0.494 | ROS (reactive oxygen species; [8]): −0.209 | mitoOX (mtOXPHOS transcripts; [8]): −0.073 | Viability (C2C12 myotubes; [8]): −0.506 | MTT [1, 8]: −1.701 | ΔΨm [2, 8]: −0.008 | cyt c (cytochrome c; [8]): −1.116

CCOC(=O)[C@H](CCc1ccccc1)N[C@@H](C)C(=O)N1[C@H](C(=O)O)C[C@H]2CCCC[C@@H]21 [trandoapril]
GE-HTS (OXPHOS gene expression; [8]): −1.375 | nucOX (nuOXPHOS transcripts; [8]): −1.466 | ROS (reactive oxygen species; [8]): 0.572 | mitoOX (mtOXPHOS transcripts; [8]): −0.884 | Viability (C2C12 myotubes; [8]): 0.694 | MTT [1, 8]: −0.684 | ΔΨm [2, 8]: −0.210 | cyt c (cytochrome c; [8]): 0.687

CC(=O)OCC(COC(C)=O)OC(C)=O [triacetin]
GE-HTS (OXPHOS gene expression; [6]): −0.327 | nucOX (nuOXPHOS transcripts; [6]): −0.187 | ROS (reactive oxygen species; [6]): 0.431 | mitoOX (mtOXPHOS transcripts; [6]): −0.569 | Viability (C2C12 myotubes; [6]): −0.842 | MTT [1, 6]: −0.717 | ΔΨm [2, 6]: −0.571 | cyt c (cytochrome c; [6]): −0.264

CC(=O)Oc1ccc(/C=C/c2cc(OC(C)=O)cc(OC(C)=O)c2)cc1 [triacetylresveratrol]
GE-HTS (OXPHOS gene expression; [9]): −1.841 | nucOX (nuOXPHOS transcripts; [9]): −1.858 | ROS (reactive oxygen species; [9]): −1.361 | mitoOX (mtOXPHOS transcripts; [9]): −1.401 | Viability (C2C12 myotubes; [9]): −0.198 | MTT [1, 9]: −2.002 | ΔΨm [2, 9]: −3.502 | cyt c (cytochrome c; [9]): 0.683

CC(CN(C)C)CN1c2ccccc2Sc2ccccc21 (stereo not drawn) [trimeprazine]
GE-HTS (OXPHOS gene expression; [10]): −0.942 | GE-HTS (OXPHOS gene expression; [3]): −0.013 | nucOX (nuOXPHOS transcripts; [10]): −0.936 | nucOX (nuOXPHOS transcripts; [3]): −0.130 | ROS (reactive oxygen species; [10]): 1.314 | ROS (reactive oxygen species; [3]): −0.430 | mitoOX (mtOXPHOS transcripts; [10]): −0.778 | mitoOX (mtOXPHOS transcripts; [3]): 0.208 | Viability (C2C12 myotubes; [10]): 0.760 | Viability (C2C12 myotubes; [3]): −1.472 | MTT [1, 10]: −2.221 | MTT [1, 3]: −2.227 | ΔΨm [2, 10]: −0.821 | ΔΨm [2, 3]: 1.905 | cyt c (cytochrome c; [10]): −2.786 | cyt c (cytochrome c; [3]): −0.086

CC(C)c1ccc2c(c1O)CC[C@H]1C3=C(CC[C@]21C)C(=O)OC3 [triptophenolide]
GE-HTS (composite Z-score) (OXPHOS gene expression; Conc 20 μM): −0.110 | nucOX (composite Z-score) (nuOXPHOS transcripts; Conc 20 μM): 0.038 | ROS (composite Z-score) (reactive oxygen species; Conc 20 μM): −1.072 | mitoOX (composite Z-score) (mtOXPHOS transcripts; Conc 20 μM): −0.350 | Viability (composite Z-score) (C2C12 myotubes; Conc 20 μM): −0.599 | MTT (composite Z-score) ([1]; Conc 20 μM): −1.067 | ΔΨm (composite Z-score) ([2]; Conc 20 μM): 1.886 | cyt c (composite Z-score) (cytochrome c; Conc 20 μM): −0.593
